Read-outs that look alike come from different tables or passages of the source. Each block holds one compound with its values, some of them ahead of it.
Key:
[1] = system: Human trabecular meshwork (TM) cells; experiment: PGE2 production (RIA) in human trabecular meshwork cells; type: cell-based; conditions: 1 h at 37° C., BK 100 nM or 1 μM, fluprostenol 1 μM, non-peptide agonists 1 μM or 10 μM, FIG. 6
Method: The ability of BK agonists to stimulate prostaglandin E2 (PGE2) production was examined as follows. Human trabecular meshwork (TM) cells were seeded in culture plates and allowed to reach confluence. […] Fluprostenol was used as a positive control. After this time the assay was terminated by placing the assay plates on ice and by the addition of 100 μL of a cell-lysis reagent supplied with the PGE2 radioimmunoassay (RIA) kit (Amersham Pharmacia Biotech, Arlington Heights, Ill.). All reagents and standards supplied in the RIA kit were prepared and the RIA performed according to the manufacturer's instructions. Assay buffer, diluted prostaglandin E2 (PGE2) standard and supernatant from the cell-based experiment (diluted 1:100 v/v) were then pipetted into appropriate tubes as specified in the kit instructions. […]
After this incubation, all tubes were placed in an ice-bath and 1 ml cold precipitating reagent supplied in the kit was added to the tubes, the content mixed and incubated for 25 min at 4° C. […] The supernatants of all tubes were decanted as specified in the kit instructions and the RIA samples analyzed on a gamma-counter. The levels of PGE2 generated by the test agent were then quantified in comparison with the PGE2-standard curve. Dose-response data for the test agent were constructed and the potency and intrinsic activity determined as described above for other assays.

[2] = biological target: T1, B2-receptors in h-CM cells (Homo sapiens, UniProt P30411); experiment: [Ca2+]i mobilization (FLIPR) in h-CM cells, agonist mode; type: cell-based; conditions: read-out: Intrinsic Activity (Emax, % max relative to BK)
T1 construct: B2-receptor proteins in h-TM, h-CM and h-NPE cells; endogenous in cells; host or cells: human trabecular meshwork (h-TM), human ciliary muscle (h-CM) and human non-pigmented ciliary epithelial (h-NPE) cells
T1 sequence (P30411 1-391): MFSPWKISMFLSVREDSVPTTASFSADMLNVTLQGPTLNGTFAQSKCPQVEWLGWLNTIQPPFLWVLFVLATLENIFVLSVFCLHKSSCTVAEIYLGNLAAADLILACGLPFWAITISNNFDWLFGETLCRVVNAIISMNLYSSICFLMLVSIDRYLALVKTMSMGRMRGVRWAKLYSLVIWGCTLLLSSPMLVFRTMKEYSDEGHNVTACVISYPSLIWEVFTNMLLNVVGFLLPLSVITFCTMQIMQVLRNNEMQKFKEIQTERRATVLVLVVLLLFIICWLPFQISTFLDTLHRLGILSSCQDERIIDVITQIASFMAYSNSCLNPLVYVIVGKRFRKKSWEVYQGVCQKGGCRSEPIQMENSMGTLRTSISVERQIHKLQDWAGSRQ
Method: (§1) On the day of the experiment, one vial of FLIPR Calcium Assay Kit dye is re-suspended in 50 mL of a FLIPR buffer consisting of Hank's Balanced Salt Solution (HBSS), 20 mM HEPES, and 2.5 mM probenecid, pH 7.4. Cells are loaded with the calcium-sensitive dye by addition of an equal volume (50 μL) to each well of the 96-well plate and incubated with dye for 1 h at 23° C. After this time, the test compound plate and cell plate are placed in the FLIPR instrument. At the beginning of an experimental run, a signal test is performed to check the basal fluorescence signal from the dye-loaded cells and the uniformity of the signal across the plate. The basal fluorescence is adjusted between 8000-12000 counts by modifying the exposure time, the camera F-stop, or the laser power. Instrument settings for a typical assay are the following: laser power 0.3-0.6 W, camera F-stop F/2, and exposure time 0.4 sec.
(§2) Fluorescence data are collected in real-time at 1.0 sec intervals for the first 60 secs and at 6.0 sec intervals for an additional 120 secs. […] The data are then analyzed using an automated, iterative, sigmoidal curve-fitting computer program to obtain the potency and intrinsic activities of the test agents as previously described (Sharif et al. J. Pharmacol. Exp. Ther. 286: 1094-1102, 1998; Sharif et al. Invest. Ophthalmol. Vis. Sci. 39:2562-2571, 1998; Kelly et al. J. Pharmacol. Exp. Ther. 304: 238-245, 2003). The sources of materials and reagents for such assays can be found in the references cited above.

[3] = biological target: T2, B2-receptors in h-TM cells (Homo sapiens, UniProt P30411); experiment: [Ca2+]i mobilization (FLIPR) in h-TM cells, agonist mode; type: cell-based; conditions: for Emax: HTM, read-out: Intrinsic Activity (Emax, % max relative to BK)
T2 construct: B2-receptor proteins in h-TM, h-CM and h-NPE cells; endogenous in cells; host or cells: human trabecular meshwork (h-TM), human ciliary muscle (h-CM) and human non-pigmented ciliary epithelial (h-NPE) cells
T2 sequence (P30411 1-391): T1 sequence (P30411 1-391)
Method: as §1, §2

[4] = biological target: T3, B2-receptors in h-NPE cells (Homo sapiens, UniProt P30411); experiment: [Ca2+]i mobilization (FLIPR) in h-NPE cells, agonist mode; type: cell-based; conditions: for Emax: read-out: Intrinsic Activity (Emax, % max relative to BK)
T3 construct: B2-receptor proteins in h-TM, h-CM and h-NPE cells; endogenous in cells; host or cells: human trabecular meshwork (h-TM), human ciliary muscle (h-CM) and human non-pigmented ciliary epithelial (h-NPE) cells
T3 sequence (P30411 1-391): T1 sequence (P30411 1-391)
Method: as §1, §2

[5] = system: conscious ocular hypertensive cynomolgus monkey eyes; experiment: IOP response in lasered (hypertensive) eyes of conscious cynomolgus monkeys, topical ocular; type: in vivo; conditions: for % Change in IOP: Table 10, 300 μg topical ocular
Method: Intraocular pressure (IOP) is determined with an Alcon Pneumatonometer (Alcon Laboratories, Inc., Fort Worth, Tex.) after light corneal anesthesia with 0.1% proparacaine. Right eyes are hypertensive as a result of laser trabeculoplasty. After a baseline IOP measurement, test compound is instilled in the right eyes only of 8-10 cynomolgus monkeys. Vehicle is instilled in the right eyes of 5-6 additional animals. Subsequent IOP measurements are taken at 1, 3, and 6 hours. IOP measurements are also taken on left eyes (normotensive and untreated) at each of these time points. The percent change in IOP from baseline is determined for each animal for every IOP measurement (Sharif et al. J. Ocular Pharmacol. Ther. 17: 305-317, 2001; May et al., J Pharmacol Exp Ther. 306: 301-309, 2003; Sharif et al. Invest. Ophthalmol. Vis. Res. 47: 4001-4010, 2006). Group mean and standard error of the mean (SEM) are calculated for each time point. […] In cases where the compound of invention has poor ocular bioavailability, the compound may need to be administered intracamerally or intravitreally in order to observe the IOP-lowering efficacy.
The IOP-lowering effect was slow to develop but significant IOP reduction was observed even 3 hours post-dosing with maximum ocular hypotension observed 16-48 hours post-dosing (Tables 6-8; FIGS. 3b-5).

[6] = biological target: T4, BK B2-Receptor in h-NPE cells (Homo sapiens, UniProt P30411); experiment: Antagonism of FR-190997-induced [Ca2+]i mobilization in h-NPE cells; type: cell-based; conditions: FR-190997 as the agonist, read-out: Antagonist Potency (Ki)
T4 construct: B2-receptor proteins in h-TM, h-CM and h-NPE cells; endogenous in cells; host or cells: human trabecular meshwork (h-TM), human ciliary muscle (h-CM) and human non-pigmented ciliary epithelial (h-NPE) cells
T4 sequence (P30411 1-391): T1 sequence (P30411 1-391)
Method: as §1, §2

Structure (SMILES): O=C(O)CCC/C=C\C[C@@H]1[C@@H](/C=C/[C@@H](O)COc2cccc(C(F)(F)F)c2)[C@H](O)C[C@@H]1O (racemic) [fluprostenol, reference compound]
- production of endogenous prostaglandins (PGE2) [1]: stimulate the production of endogenous prostaglandins

Structure (SMILES): N=C(N)NCCC[C@H](NC(=O)[C@H](Cc1ccccc1)NC(=O)[C@@H]1CCCN1C(=O)[C@H](CO)NC(=O)[C@H](Cc1ccccc1)NC(=O)CNC(=O)[C@@H]1C[C@@H](O)CN1C(=O)[C@@H]1CCCN1C(=O)[C@@H](N)CCCNC(=N)N)C(=O)O [Hyp^3-BK, Arg-Pro-Hyp-Gly-Phe-Ser-Pro-Phe-Arg]
- Emax [2]: 105%
- EC50 [3]: 0.9 ± 0.3 nM
- Emax [3]: 110%
- EC50 [4]: 6 ± 0.6 nM
- Emax [4]: 93%

Now from value to compound, other results behind:

- Emax ([2]; h-CM cells, mean ± SEM): 94%
- Emax ([3]; h-TM cells, mean ± SEM): 112%
- Emax ([4]; h-NPE cells, mean ± SEM): 70%
Structure (SMILES): N=C(N)NCCC[C@H](N)C(=O)N1CCC[C@H]1C(=O)N1CCC[C@H]1C(=O)NCC(=O)N[C@@H](Cc1ccccc1)C(=O)N[C@@H](CO)C(=O)N1CCC[C@H]1C(=O)N[C@@H](Cc1ccccc1)C(=O)O [Des-Arg^9-BK]

- Ki [6]: 146 nM
Structure (SMILES): CNC(=O)c1ccc(/C=C/C(=O)NCC(=O)N(C)c2ccc(Cl)c(COc3cccc4ccc(C)nc34)c2Cl)cc1 [FR-165649, reference compound]
- modulation of IOP ([5]; 300 μg topically administered): failed to modulate IOP
- % Change in IOP ([5]; Dose 1/1 hr): 1.0 ± 3.1%
- % Change in IOP ([5]; Dose 1/3 hr): 0.7 ± 3.5%
- % Change in IOP ([5]; Dose 1/6 hr): −6.2 ± 4.7%
- % Change in IOP ([5]; Dose 1/24 hr): −4.0 ± 3.2%

- Emax ([2]; h-CM cells, mean ± SEM): 115%
- Emax ([3]; h-TM cells, mean ± SEM): 115%
- Emax ([4]; h-NPE cells, mean ± SEM): 90%
Structure (SMILES): N=C(N)NCCC[C@H](NC(=O)[C@H](Cc1ccccc1)NC(=O)[C@@H]1CCCN1C(=O)[C@H](CO)NC(=O)[C@H](Cc1ccccc1)NC(=O)CNC(=O)[C@@H]1CCCN1C(=O)[C@@H]1CCCN1C(=O)[C@H](CCCNC(=N)N)NC(=O)[C@@H](N)CCCCN)C(=O)O [Lys-BK]

- Emax ([2]; h-CM cells, mean ± SEM): 110%
- Emax ([3]; h-TM cells, mean ± SEM): 111%
- Emax ([4]; h-NPE cells, mean ± SEM): 77%
Structure (SMILES): CSCC[C@H](N)C(=O)N[C@@H](CCCCN)C(=O)N[C@@H](CCCNC(=N)N)C(=O)N1CCC[C@H]1C(=O)N1CCC[C@H]1C(=O)NCC(=O)N[C@@H](Cc1ccccc1)C(=O)N[C@@H](CO)C(=O)N1CCC[C@H]1C(=O)N[C@@H](Cc1ccccc1)C(=O)N[C@@H](CCCNC(=N)N)C(=O)O [Met-Lys-BK]
